Measured values: US20110301079A1, “NEUROMEDIN U RECEPTOR AGONISTS AND USES THEREOF” (Instituto di Ricerche di Biologia Molecolare P. Angeletti …, priority 2007, published 2011)
Residues, ends and D or L forms follow the SMILES beside them. *: point of attachment. X1 = CC(C)CCC[C@@H](C)[C@H]1CC[C@H]2[C@@H]3CC=C4C[C@@H](OC(=O)C*)CC[C@]4(C)[C@H]3CC[C@]12C

How the values were obtained:
mouse NMUR1-ATG = biological target: T1, mouse NMUR1-ATG (Mus musculus, UniProt O55040); assay: FLIPR calcium mobilization assay, mouse NMUR1-ATG cell line; type: cell-based; settings: for % Activity: maximum response at 1 μM compared to the human NMU-25 response at the same concentration
T1 construct: expressed in transfected cells; host or cells: FLP-In CHO cells and HEK-293 FLP-In cells (pcDNA5)
T1 sequence (O55040 1-428): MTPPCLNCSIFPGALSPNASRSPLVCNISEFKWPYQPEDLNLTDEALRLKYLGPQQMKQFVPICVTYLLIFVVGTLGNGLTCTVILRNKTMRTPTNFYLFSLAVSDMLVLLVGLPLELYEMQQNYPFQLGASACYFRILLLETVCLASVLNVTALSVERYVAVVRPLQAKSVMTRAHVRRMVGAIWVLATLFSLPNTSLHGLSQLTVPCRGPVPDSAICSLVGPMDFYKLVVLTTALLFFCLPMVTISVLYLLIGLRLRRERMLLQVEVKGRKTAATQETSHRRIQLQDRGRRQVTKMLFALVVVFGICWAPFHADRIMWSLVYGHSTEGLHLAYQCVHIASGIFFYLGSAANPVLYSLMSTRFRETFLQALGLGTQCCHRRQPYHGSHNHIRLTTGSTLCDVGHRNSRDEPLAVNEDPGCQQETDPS
Excerpt: (§1) Human, mouse or rat cDNAs encoding NMUR1 or NMUR2 (as described in Howard et al. Nature 406: 70-74 (2000) were subcloned in pcDNA5 (Invitrogen) and transfected into FLP-In CHO cells and HEK-293 FLP-In cells purchased from Invitrogen (Carlsbad, Calif.) using lipofectamine (Invitrogen). The Flp-In system allows integration and expression of a particular gene of interest at a specific genomic location utilizing the Flp recombinase from yeast. The transfected cells were selected by growth in medium containing 200 μg/mL hygromycin (Invitrogen). Populations were frozen at early passage numbers, and these stocks were used for further studies. Stable clones that expressed the mRNAs were identified functionally by FLIPR as well as by RT-PCR. […] Two different rodent NMUR1 cell lines were thus generated: one with the codon as predicted from the genomic databases and another cell line with an engineered methionine (ATG) as the start codon. The dog NMU receptors were also cloned from intestine RNA (NMUR1) and brain (NMUR2) and stable cell lines were generated as used for the human and rodent cell lines. […] To ensure high levels of expression in a heterologous system, a dog NMUR1 cell line was generated that contains an ATG as the start codon. Additionally, stable cell lines expressing the human receptors were generated in HEK-293/aeq 17 cells which stably express the aequorin gene under the CMV promoter. The human NMUR2 cDNA was cloned into pcDNA3.1 and human NMUR1 was subcloned into pIRES-puro (Clontech, Mountain View, Calif.), after transfection cells were selected in media containing G418 and either hygromycin (NMUR2) or puromycin (NMUR1).
(§2) The NMU receptors signal primarily through Gαq/11 proteins; therefore calcium mobilization assays can be utilized for functional activity.
(§3) Stable cell lines expressing human and or rodent NMUR1 or human NMUR2 receptors are plated at a density of 12,000 cells per well overnight on poly-lysine coated 384-well black-walled plates. The following day, the media is removed from the plates and the cells were subsequently loaded with Fluo-3 (Molecular Probes), a calcium sensitive dye, diluted in FLIPR buffer (1× Hank's buffered saline containing 20 mM HEPES, 0.1% BSA, 2.5 mM probenecid (Sigma) and 1.6 mM TR40). All reagents are from Invitrogen unless otherwise noted. Peptide stocks are resuspended in DMSO at a stock concentration of 2 mM and diluted in FLIPR buffer on the day of the experiment to a 4 μM working stock solution.
(§4) After a 90 minute incubation at room-temperature, cell plates are loaded onto a FLIPR (Molecular Devices) to monitor cellular fluorescence (excitation=488 nm; emission=540 nm) before and after compound/peptide addition. Eight to twelve point dose responses are tested on NMUR-expressing cell lines using FLIPR with 1 μM peptide as the highest dose. The response after peptide addition is taken as the maximum fluorescence units minus the fluorescence immediately prior to stimulation for each well. EC50 values are calculated using GraphPad Prism (San Diego, Calif.) software.
(§5) Percent activity refers to the maximum response at 1 μM compared to the human NMU-25 response at the same concentration.

human NMUR2 = biological target: T2, human NMUR2 (Homo sapiens, UniProt Q9GZQ4); assay: FLIPR calcium mobilization assay, human NMUR2-expressing cell line; type: cell-based; settings: for % Activity: human NMUR2, maximum response at 1 μM compared to the human NMU-25 response at the same concentration
T2 construct: expressed in transfected cells; host or cells: FLP-In CHO cells and HEK-293 FLP-In cells (pcDNA5)
Excerpt: as §1, §2, §3, §4, §5

mouse NMUR2 = biological target: T3, mouse NMUR2 (Mus musculus, UniProt Q8BZ39); assay: FLIPR calcium mobilization assay, mouse NMUR2 cell line; type: cell-based; settings: for % Activity: mouse NMUR2, maximum response at 1 μM compared to the human NMU-25 response at the same concentration
T3 construct: expressed in transfected cells; host or cells: FLP-In CHO cells and HEK-293 FLP-In cells (pcDNA5)
Excerpt: as §1, §2, §3, §4, §5

dog NMUR1-ATG = assay: FLIPR calcium mobilization assay, dog NMUR1-ATG cell line; type: cell-based; settings: for EC50: FLIPR; for % Activity: maximum response at 1 μM compared to the human NMU-25 response at the same concentration
Excerpt: as §1, §2, §3, §4, §5

dog NMUR2 = biological target: T4, dog NMUR2 (Canis lupus familiaris, UniProt A0A8I3MN59); assay: FLIPR calcium mobilization assay, dog NMUR2 cell line; type: cell-based; settings: for % Activity: dog NMUR2, maximum response at 1 μM compared to the human NMU-25 response at the same concentration
T4 construct: expressed in transfected cells
Excerpt: as §1, §2, §3, §4, §5

human NMUR1 = biological target: T5, human NMUR1 (Homo sapiens, UniProt Q9HB89); assay: FLIPR calcium mobilization assay, human NMUR1-expressing cell line; type: cell-based; settings: for % Activity: human NMUR1, maximum response at 1 μM compared to the human NMU-25 response at the same concentration
T5 construct: expressed in transfected cells; host or cells: FLP-In CHO cells and HEK-293 FLP-In cells (pcDNA5)
T5 sequence (Q9HB89 1-426): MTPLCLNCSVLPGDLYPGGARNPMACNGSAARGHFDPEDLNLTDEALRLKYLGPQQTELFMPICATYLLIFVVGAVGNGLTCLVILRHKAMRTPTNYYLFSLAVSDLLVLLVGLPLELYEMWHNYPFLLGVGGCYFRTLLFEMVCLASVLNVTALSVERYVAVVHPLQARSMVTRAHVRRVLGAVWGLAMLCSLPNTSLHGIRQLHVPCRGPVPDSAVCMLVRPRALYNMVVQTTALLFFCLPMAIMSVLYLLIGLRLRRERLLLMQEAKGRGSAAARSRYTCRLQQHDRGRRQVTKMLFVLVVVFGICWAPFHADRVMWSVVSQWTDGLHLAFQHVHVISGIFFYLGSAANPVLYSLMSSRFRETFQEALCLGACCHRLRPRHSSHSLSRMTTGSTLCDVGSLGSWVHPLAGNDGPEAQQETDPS
Excerpt: as §1, §2, §3, §4, §5

mice = assay: Acute subcutaneous administration of NMS analogs, daily food intake and body weight; type: in vivo; settings: for food intake: lipidated analogs compared to NMS1, FIG. 10A; for body weight: lipidated analogs compared to NMS1, FIG. 10B

T3 sequence (Q8BZ39 whole entry): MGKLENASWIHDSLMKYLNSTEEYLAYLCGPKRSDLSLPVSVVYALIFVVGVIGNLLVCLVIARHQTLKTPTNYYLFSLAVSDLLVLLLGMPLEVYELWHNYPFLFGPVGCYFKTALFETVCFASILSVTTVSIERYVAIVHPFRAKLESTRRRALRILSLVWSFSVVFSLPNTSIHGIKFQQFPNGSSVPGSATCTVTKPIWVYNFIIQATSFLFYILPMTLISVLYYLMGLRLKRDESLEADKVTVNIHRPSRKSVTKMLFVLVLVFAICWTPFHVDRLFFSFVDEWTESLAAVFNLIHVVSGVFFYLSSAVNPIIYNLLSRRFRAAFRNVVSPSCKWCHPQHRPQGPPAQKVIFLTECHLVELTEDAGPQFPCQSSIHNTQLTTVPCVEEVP
T2 sequence (Q9GZQ4 whole entry): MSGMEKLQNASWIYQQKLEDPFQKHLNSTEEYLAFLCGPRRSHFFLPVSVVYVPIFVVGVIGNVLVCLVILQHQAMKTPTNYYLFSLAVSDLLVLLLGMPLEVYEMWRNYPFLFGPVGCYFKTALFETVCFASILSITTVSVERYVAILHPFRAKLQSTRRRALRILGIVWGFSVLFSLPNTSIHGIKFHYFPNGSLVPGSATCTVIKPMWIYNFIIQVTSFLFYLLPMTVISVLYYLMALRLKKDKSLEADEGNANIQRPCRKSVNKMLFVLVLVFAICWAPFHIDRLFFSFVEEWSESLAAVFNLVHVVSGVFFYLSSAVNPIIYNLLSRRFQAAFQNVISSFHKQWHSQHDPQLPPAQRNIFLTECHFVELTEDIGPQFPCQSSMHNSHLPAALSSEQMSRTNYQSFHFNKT
T4 sequence (A0A8I3MN59 1-378): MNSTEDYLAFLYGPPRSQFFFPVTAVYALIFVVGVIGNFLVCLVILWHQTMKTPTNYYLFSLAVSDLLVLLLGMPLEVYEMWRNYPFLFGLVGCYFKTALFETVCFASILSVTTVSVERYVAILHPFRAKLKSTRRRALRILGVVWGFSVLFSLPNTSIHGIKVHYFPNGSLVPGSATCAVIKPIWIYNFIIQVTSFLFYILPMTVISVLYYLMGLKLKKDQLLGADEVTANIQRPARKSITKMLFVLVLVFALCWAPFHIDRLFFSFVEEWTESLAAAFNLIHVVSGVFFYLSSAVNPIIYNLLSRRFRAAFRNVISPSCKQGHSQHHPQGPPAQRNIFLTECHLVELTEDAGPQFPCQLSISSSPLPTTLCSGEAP

EC50 (mouse NMUR1-ATG; FLIPR) | EC50 (human NMUR2; human NMUR2, FLIPR) | EC50 (mouse NMUR2; mouse NMUR2, FLIPR) | EC50 (dog NMUR2; dog NMUR2, FLIPR) | EC50 (human NMUR1; human NMUR1, FLIPR) | SMILES | % Activity (mouse NMUR1-ATG) | % Activity (human NMUR2) | % Activity (mouse NMUR2) | EC50 (dog NMUR1-ATG) | % Activity (dog NMUR1-ATG) | % Activity (dog NMUR2) | % Activity (human NMUR1) | food intake (mice) | body weight (mice)
12.5 nM | 214 nM | 40.1 nM | 18.8 nM | 248 nM | CCCCCCCCCCCCCCCC(=O)N[C@H](C(=O)N[C@@H](CC(C)C)C(=O)N[C@@H](CCC(N)=O)C(=O)N[C@@H](CCCNC(=N)N)C(=O)NCC(=O)N[C@@H](CO)C(=O)NCC(=O)N[C@H](C(=O)N[C@@H](C)C(=O)N[C@@H](C)C(=O)N[C@H](C(=O)N[C@@H](CC(=O)O)C(=O)N[C@@H](Cc1ccccc1)C(=O)N[C@H](C(=O)N[C@@H](CCCCN)C(=O)N[C@@H](CCCCN)C(=O)N[C@@H](CC(=O)O)C(=O)N[C@@H](Cc1c[nH]cn1)C(=O)N[C@H](C(=O)N[C@@H](C)C(=O)N[C@H](C(=O)N[C@@H](Cc1c[nH]c2ccccc12)C(=O)NCC(=O)N[C@@H](CCCNC(=N)N)C(=O)N1CCC[C@H]1C(=O)N[C@@H](Cc1ccccc1)C(=O)N[C@@H](Cc1ccccc1)C(=O)N[C@@H](CC(C)C)C(=O)N[C@@H](Cc1ccccc1)C(=O)N[C@@H](CCCNC(=N)N)C(=O)N1CCC[C@H]1C(=O)N[C@@H](CCCNC(=N)N)C(=O)N[C@@H](CC(N)=O)C(N)=O)[C@@H](C)O)[C@@H](C)O)[C@@H](C)O)C(C)C)[C@@H](C)O)[C@@H](C)CC [NMS5] (HELM PEPTIDE1{[CCCCCCCCCCCCCCCC(=O)[*:2]].I.L.Q.R.G.S.G.T.A.A.V.D.F.T.K.K.D.H.T.A.T.W.G.R.P.F.F.L.F.R.P.R.N.[am]}$$$$V2.0) | 83% | 93% | 78% | ≥ 1000 nM | 82% | 100% | 85% | significantly reduce | significantly reduce
 |  |  |  |  | CC[C@H](C)[C@H](NC(=O)[C@H](CSCC(=O)O[C@H]1CC[C@@]2(C)C(=CC[C@H]3[C@@H]4CC[C@H]([C@H](C)CCCC(C)C)[C@@]4(C)CC[C@@H]32)C1)NC(C)=O)C(=O)N[C@@H](CC(C)C)C(=O)N[C@@H](CCC(N)=O)C(=O)N[C@@H](CCCNC(=N)N)C(=O)NCC(=O)N[C@@H](CO)C(=O)NCC(=O)N[C@H](C(=O)N[C@@H](C)C(=O)N[C@@H](C)C(=O)N[C@H](C(=O)N[C@@H](CC(=O)O)C(=O)N[C@@H](Cc1ccccc1)C(=O)N[C@H](C(=O)N[C@@H](CCCCN)C(=O)N[C@@H](CCCCN)C(=O)N[C@@H](CC(=O)O)C(=O)N[C@@H](Cc1c[nH]cn1)C(=O)N[C@H](C(=O)N[C@@H](C)C(=O)N[C@H](C(=O)N[C@@H](Cc1c[nH]c2ccccc12)C(=O)NCC(=O)N[C@@H](CCCNC(=N)N)C(=O)N1CCC[C@H]1C(=O)N[C@@H](Cc1ccccc1)C(=O)N[C@@H](Cc1ccccc1)C(=O)N[C@@H](CC(C)C)C(=O)N[C@@H](Cc1ccccc1)C(=O)N[C@@H](CCCNC(=N)N)C(=O)N1CCC[C@H]1C(=O)N[C@@H](CCCNC(=N)N)C(=O)N[C@@H](CC(N)=O)C(N)=O)[C@@H](C)O)[C@@H](C)O)[C@@H](C)O)C(C)C)[C@@H](C)O [NMS2] (Ac-C(X1)ILQRGSGTAAVDFTKKDHTATWGRPFFLFRPRN-NH2) | 39% | 16% | 32% | ≥ 1000 nM | 46% | 84% | 11% | significantly reduce | significantly reduce
